Measurements published in the supplement of paper PMC8633005.

What was measured:
Test in all cases: drug sensitivity score (DSS) (DSS (unitless, 0-50 scale)); higher = more sensitive (stronger viability inhibition); extreme values may be limits of the assay
Conditions in all cases: 72 h; culture: 2D
Bowes = tested on: Bowes
Method in brief: (§1)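 Viability was measured by CellTiter-Glo luminescence after 72 h at 37 °C in 384-well plates holding a 527-compound oncology library, with patient-derived melanoma cultures (1000–1500 cells per well) and melanoma cell lines grown in 2D. Every compound was tested at five concentrations spanning a 10,000-fold range. The drug sensitivity score, a modified area under the curve, came from dose-response curves fitted with in-house Breeze software.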

FM-MEL-2 = tested on: FM-MEL-2
Method in brief: as §1

FM-MEL-3 = tested on: FM-MEL-3
Method in brief: as §1

FM-MEL-6 = tested on: FM-MEL-6
Method in brief: as §1

SK-MEL-28 = tested on: SK-MEL-28
Method in brief: as §1

SK-MEL-2 = tested on: SK-MEL-2
Method in brief: as §1

WM165 = tested on: WM165
Method in brief: as §1

WM852 = tested on: WM852
Method in brief: as §1

SMILES	drug sensitivity score (Bowes)	drug sensitivity score (FM-MEL-2)	drug sensitivity score (FM-MEL-3)	drug sensitivity score (FM-MEL-6)	drug sensitivity score (SK-MEL-28)	drug sensitivity score (SK-MEL-2)	drug sensitivity score (WM165)	drug sensitivity score (WM852)
O=C(O)C(=O)O.[NH-][C@@H]1CCCC[C@H]1[NH-].[Pt+2] [Oxaliplatin]	5.8	4.7	3.2	11.7	7.3	4.3	14.5	3.5
C=CCc1cccc(/C=N/NC(=O)CN2CCN(Cc3ccccc3)CC2)c1O [PAC-1]	1.6	0	0	0	1.5	0	3.4	2.8
O=C(Nc1cccnc1)N1CCC(Cc2cccc(Oc3ccc(C(F)(F)F)cn3)c2)CC1 [PF-3845]	3.8	0	0.1	0	0	0	1	4
COc1ccccc1S(=O)(=O)Nc1ccc2c(c1)CN(C)C(=O)N2 [PFI-1]	4	4.7	6	4.1	2.8	0.1	6.2	0.1
CN1CCN(c2cc(C(=O)Nc3ccc4c(c3)-c3c(c(C(N)=O)nn3-c3ccc(F)cc3)CC4)c(Cl)cn2)CC1 [PHA 408]	0.5	5.7	1.1	5.2	0.1	4.2	3.4	5.3
O=C(Nc1cc(Cl)cc2c1[nH]c1cnccc12)c1cccnc1 [PS-1145]	0	0	0.7	0	0	0	0	1.3
COc1cc(Br)c(Nc2nc(-c3c(C)nc4ncccn34)cs2)c(Br)c1 [PTC-209]	13.7	5.1	11.2	5	4.6	4.2	12.4	7.6
CC(=O)O[C@H]1C(=O)[C@@]2(C)[C@H]([C@H](OC(=O)c3ccccc3)[C@]3(O)C[C@H](OC(=O)[C@H](O)[C@@H](NC(=O)c4ccccc4)c4ccccc4)C(C)=C1C3(C)C)[C@]1(OC(C)=O)CO[C@@H]1C[C@@H]2O [Paclitaxel]	23.3	5.3	11.9	13.7	11.5	16.5	22.2	20.5
C1=N/C2=N/c3ccc(OCCN4CCCC4)c(c3)COC/C=C/COCc3cccc(c3)C(=C1)N2 [Pacritinib]	16.8	9.8	9.5	7.7	9.8	5.4	9.8	9.1
CC(=O)c1c(C)c2cnc(Nc3ccc(N4CCNCC4)cn3)nc2n(C2CCCC2)c1=O [Palbociclib]	4.6	3.8	2.3	4.2	6.3	0.7	5.8	3.1
COc1ccc(COc2cc3oc(=O)c4cc(C(C)O)ccc4c3cc2OC)cc1 (centres undefined) [Palomid-529]	0	0.1	0.7	0.1	0	0	0	0
Cc1[nH]c2ccccc2c1CCNCc1ccc(/C=C/C(=O)NO)cc1 [Panobinostat]	10.1	16.2	14.9	12.1	12.9	16.8	19.6	9.3
Cc1ccc(Nc2nccc(N(C)c3ccc4c(C)n(C)nc4c3)n2)cc1S(N)(=O)=O [Pazopanib]	2.8	0	0	0.4	0	0	0	2.1
Nc1nc2[nH]cc(CCc3ccc(C(=O)N[C@@H](CCC(=O)O)C(=O)O)cc3)c2c(=O)[nH]1 [Pemetrexed]	24.5	0.6	0	0.1	6.6	0	7.4	0
OC[C@H]1O[C@@H](n2cnc3c2N=CNC[C@H]3O)C[C@@H]1O [Pentostatin]	0	0	1.8	0	0	0	0	0
CCCCCCCCCCCCCCCCCCOP(=O)([O-])OC1CC[N+](C)(C)CC1 [Perifosine]	0	0.2	0.4	0	0	0	0	0
NS(=O)(=O)OC[C@@H]1C[C@@H](n2ccc3c(N[C@H]4CCc5ccccc54)ncnc32)C[C@@H]1O [Pevonedistat]	10.9	6.2	12.4	7.8	7	11.7	20	11.7

SMILES	drug sensitivity score (Bowes)	drug sensitivity score (FM-MEL-2)	drug sensitivity score (FM-MEL-3)	drug sensitivity score (FM-MEL-6)	drug sensitivity score (SK-MEL-28)	drug sensitivity score (SK-MEL-2)	drug sensitivity score (WM165)	drug sensitivity score (WM852)
FC(F)(F)c1ccc(CNc2ccc(Cc3c[nH]c4ncc(Cl)cc34)cn2)cn1 [Pexidartinib]	0.2	1	3	1.1	0.4	0	2.4	4.5
CS(=O)(=O)N1CCN(Cc2cc3nc(-c4cccc5[nH]ncc45)nc(N4CCOCC4)c3s2)CC1 [Pictilisib]	8.4	12.7	8.8	7.4	9.6	3.2	8.4	6.5
CC[C@@H]1C(=O)OC[C@@H]1Cc1cncn1C [Pilocarpine]	0	0	1.5	0	0	0	0	0
CC(C)N(C[C@H]1O[C@@H](n2cnc3c(N)ncnc32)[C@H](O)[C@@H]1O)[C@H]1C[C@@H](CCc2nc3cc(C(C)(C)C)ccc3[nH]2)C1 [Pinometostat]	0	0	0	0	0	0	0	0
Cc1ccc(=O)n(-c2ccccc2)c1 [Pirfenidone]	0	0	0	0	0	0	0	0
NCCNc1ccc(NCCN)c2c1C(=O)c1ccncc1C2=O [Pixantrone]	4.8	0	0	0.8	0	0	0.7	1.3
c1cc(CN2CCCNCCNCCCNCC2)ccc1CN1CCCNCCNCCCNCC1 [Plerixafor]	0	0	0	0	0	0	0	0
CO[C@H](C(=O)[C@@H](O)[C@@H](C)O)[C@@H]1Cc2cc3cc(O[C@H]4C[C@@H](O[C@@H]5C[C@@H](O)[C@H](O)[C@@H](C)O5)[C@H](O)[C@@H](C)O4)c(C)c(O)c3c(O)c2C(=O)[C@H]1O[C@H]1C[C@@H](O[C@@H]2C[C@@H](O)[C@@H](O[C@@H]3C[C@](C)(O)[C@H](O)[C@@H](C)O3)[C@@H](C)O2)[C@H](O)[C@@H](C)O1 [Plicamycin]	26.4	12.7	21.3	7.4	8.6	16.8	15.7	3.2
Nc1cccc2c1C(=O)N(C1CCC(=O)NC1=O)C2=O (centres undefined) [Pomalidomide]	0	0	0	0	0	0	0	0
Cc1ccc(C(=O)Nc2ccc(CN3CCN(C)CC3)c(C(F)(F)F)c2)cc1C#Cc1cnc2cccnn12 [Ponatinib]	9.1	7.8	9.1	4.5	4.9	4.4	8.3	6.2
C=CC(=O)N1CCC(Oc2cc3c(Nc4ccc(Cl)c(Cl)c4F)ncnc3cc2OC)CC1 [Poziotinib]	2.2	0	0	0	0	0	0	0
CCCCc1nc2cc(/C=C/C(=O)NO)ccc2n1CCN(CC)CC [Pracinostat]	9.2	14.5	13.3	14	12.9	14	16.8	9.1
CC[C@H](C)C(=O)O[C@H]1C[C@H](O)C=C2C=C[C@H](C)[C@H](CC[C@@H](O)C[C@@H](O)CC(=O)O)[C@H]21 [Pravastatin]	0	0.8	0	0	0	0	0	0
C[C@]12C=CC(=O)C=C1CC[C@@H]1[C@@H]2[C@@H](O)C[C@@]2(C)[C@H]1CC[C@]2(O)C(=O)CO [Prednisolone]	0	0.3	2.8	0	0	0	0	0
Cn1cc(CNCC2CCN(c3ncc(C(=O)NO)cn3)CC2)c2ccccc21 [Quisinostat]	9	13.4	11.3	10.6	10.7	13.5	16.3	5.7
Nc1cc(F)ccc1NC(=O)/C=C/c1cnn(C/C=C/c2ccccc2)c1 [RGFP966]	1.6	0	0.5	1.9	0	0	0	0
